Patent US20220313662A1, “SUCCINATE DEHYDROGENASE INHIBITORS FOR BREAKING DORMANCY” (Valent BioSciences LLC, priority 2021, published 2022)

What was measured:
Type in all cases: in vivo
Concord grape vines [1] = assay: Example 1: bud break and shoot weight of potted Concord grape vines in a greenhouse; settings: for shoot weight, more than control / Shoot Weight: 41 days after treatment; for time to 50% bud break, faster than control: rates of Table 1: malonate 3,000 and 10,000 ppm, penthiopyrad 1,428 ppm, inpyrfluxam 486 ppm, pydiflumetofen 968 ppm
Method: (§1) To assess the ability of SDHIs to promote and synchronize bud break and increase shoot weight, SDHIs were applied to shoots of potted 1 year old Concord grape vines grown in a greenhouse and examined for bud break (initiation of growth). Hydrogen cyanamide, malonate (malonic acid), inpyrfluxam, penthiopyrad and pydiflumetofen were each applied individually to the shoots of five potted concord grape rootstocks that were pruned to 5 nodes. Plants were evaluated for bud break periodically starting at 5 days after treatment. Plants were evaluated for shoot weight at 41 days after treatment.

Concord grape vines [2] = assay: Example 2: bud break and shoot weight of potted Concord grape vines, single SDHIs and mixtures (OCE/ECE, Abbott method); settings: for Shoot Weight: 41 days after treatment
Method: as §1, with “of” for “of potted”, “old potted” for “old”, “inpyrfluxam,” for “inpyrfluxam, penthiopyrad”, “mixtures of malonate and inpyrfluxam” for “pydiflumetofen”, “applied” for “applied individually”
To determine if the mixtures provided unexpected results, the observed combined efficacy (“OCE”) was divided by the expected combined efficacy (“ECE”) to give an OCE/ECE ratio wherein the expected ECE is calculated by the Abbott method: […]
wherein ECE is the expected combined efficacy and in which A and B are the efficacy provided by the single active ingredients. If the ratio between the OCE of the mixture and the ECE of the mixture is greater than 1, then greater than expected interactions are present in the mixture. (Gisi, The American Phytopathological Society, 86:11, 1273-1279, 1996).

Thompson seedless grapes [3] = assay: Example 3: field trial, bud break and shoot growth of Thompson seedless grapes
Method: Thompson seedless grapes were grown in the field in Kanoneiland, Northern Cape, South Africa during the 2021 growing season. Hydrogen cyanamide, malonate (malonic acid), and inpyrfluxam were each applied to the shoots of grape plants at 2 or 4 weeks before natural bud break. Plants were evaluated for bud break at 7 and 21 days after 1st bud break.

Thompson seedless grapes [4] = assay: as above; parameters: Shoot Growth: unit not given beside the values; settings: for Shoot Growth: equals sum of the three length classes
[5] = applied at 10,000 ppm to shoots
[6] = 10,000 ppm, applied 2 weeks before natural bud break
[7] = 10,000 ppm, applied 4 weeks before natural bud break
[8] = 10,000 ppm (Table 4), 2 weeks before natural bud break
[9] = 10,000 ppm, 2 weeks before natural bud break
[10] = 10,000 ppm, 4 weeks before natural bud break
[11] = 2% v/v, 4 weeks before natural bud break
[12] = 2% v/v, applied 4 weeks before natural bud break
[13] = 486 ppm, applied 2 weeks before natural bud break
[14] = 486 ppm, applied 4 weeks before natural bud break
[15] = 486 ppm (Table 4), 2 weeks before natural bud break
[16] = 486 ppm, 2 weeks before natural bud break
[17] = 486 ppm, 4 weeks before natural bud break

In the case of `O=C(O)CC(=O)O` [Malonate, malonic acid], the “days to 100% bud break, faster than control” value (shortened to “days to 100% bud break”) (Concord grape vines [1]; 3,000 ppm) is reported as 10%, the “shoot weight, more than control” value (Concord grape vines [1]; 3,000 ppm) is reported as 28% and the “days to 100% bud break” value (Concord grape vines [1]; 10,000 ppm) is reported as 19%. For the same compound, the “shoot weight, more than control” value (Concord grape vines [1]; 10,000 ppm) was 58%, the “Days to 50% BB” value (Concord grape vines [1]; applied at 3,000 ppm to shoots) was 7 days and the “Days to 100% BB” value (Concord grape vines [1]; applied at 3,000 ppm to shoots) was 19 days. The “Shoot Weight” value (Concord grape vines [1]; applied at 3,000 ppm) was 41.75 g, the “Days to 50% BB” value (Concord grape vines [1]; [5]) was 7 days and the “Days to 100% BB” value (Concord grape vines [1]; [5]) was 17 days. For the same compound, the “Shoot Weight” value (Concord grape vines [1]; applied at 10,000 ppm) was 51.4 g, the “time to 50% bud break, faster than control” value (from here on “time to 50% bud break”) (Concord grape vines [1]) was “about 40%” and the “time to 50% bud break” value (Concord grape vines [2]; 1,000 ppm, 3,000 ppm and 10,000 ppm) was “about 4%”. The “time to 100% bud break, faster than control” value (from here on “time to 100% bud break”) (Concord grape vines [2]; 10,000 ppm) was 25%, the “Days to 50% BB” value (Concord grape vines [2]; applied at 300 ppm to shoots) was 25 days and the “Days to 100% BB” value (Concord grape vines [2]; applied at 300 ppm to shoots) was 20 days. The “Shoot Weight” value (Concord grape vines [2]; applied at 300 ppm) was 8.0 g, the “Days to 50% BB” value (Concord grape vines [2]; applied at 1,000 ppm to shoots) was 24 days and the “Days to 100% BB” value (Concord grape vines [2]; applied at 1,000 ppm to shoots) was 26 days. For the same compound, the “Shoot Weight” value (Concord grape vines [2]; applied at 1,000 ppm) was 8.8 g, the “Days to 50% BB” value (Concord grape vines [2]; applied at 3,000 ppm to shoots) was 24 days and the “Days to 100% BB” value (Concord grape vines [2]; applied at 3,000 ppm to shoots) was 17 days. The “Shoot Weight” value (Concord grape vines [2]; applied at 3,000 ppm) was 8.5 g, the “Days to 50% BB” value (Concord grape vines [2]; [5]) was 24 days and the “Days to 100% BB” value (Concord grape vines [2]; [5]) was 12 days. The “Shoot Weight” value (Concord grape vines [2]; applied at 10,000 ppm) was 7.9 g, the “Bud Break % at 7 days after 1st bud break” value (“Bud Break % at 7 days” for short) (Thompson seedless grapes [3]; [6]) was 33.7 a % and the “Bud Break % at 21 days after 1st bud break” value (“Bud Break % at 21 days” below) (Thompson seedless grapes [3]; [6]) was “statistically significant increase over control”. The “Bud Break % at 7 days” value (Thompson seedless grapes [3]; [7]) was 29 a %, the “increase in shoot growth over Dormex” value (Thompson seedless grapes [4]; [8]) was 11% and the “increase in shoot growth over control” value (Thompson seedless grapes [4]; [8]) was 44%. The “increase in shoot growth over control” value (Thompson seedless grapes [4]; 10,000 ppm (Table 4), 4 weeks before natural bud break) was 20%, the “Shoot Growth (%) 1-5 cm” value (Thompson seedless grapes [4]; [9]) was 23.3% and the “Shoot Growth (%) 5-10 cm” value (Thompson seedless grapes [4]; [9]) was 19.1%. For the same compound, the “Shoot Growth (%) >10 cm” value (Thompson seedless grapes [4]; [9]) was 32 c %, the “Shoot Growth” value (Thompson seedless grapes [4]; [9]) was 74.5 and the “Shoot Growth (%) 1-5 cm” value (Thompson seedless grapes [4]; [10]) was 27.7%. The “Shoot Growth (%) 5-10 cm” value (Thompson seedless grapes [4]; [10]) was 17.8%, the “Shoot Growth (%) >10 cm” value (Thompson seedless grapes [4]; [10]) was 16.6 b % and the “Shoot Growth” value (Thompson seedless grapes [4]; [10]) was 62. The “Bud Break % at 21 days” value (Thompson seedless grapes [4]; [6]) was 98.2 ef % and the “Bud Break % at 21 days” value (Thompson seedless grapes [4]; [7]) was 87.5 cde %.

For `CC(C)CC(C)c1sccc1NC(=O)c1cn(C)nc1C(F)(F)F` (stereo not shown) [Penthiopyrad, penthiopyrad], the “days to 100% bud break” value (Concord grape vines [1]; 1,428 ppm (Table 1)) was 38%, the “Days to 50% BB” value (Concord grape vines [1]; applied at 1,428 ppm to shoots) was 7 days and the “Days to 100% BB” value (Concord grape vines [1]; applied at 1,428 ppm to shoots) was 13 days. The “Shoot Weight” value (Concord grape vines [1]; applied at 1,428 ppm) was 29.4 g and the “time to 50% bud break” value (Concord grape vines [1]) was “about 40%”.

`N#CN` [Hydrogen cyanamide, hydrogen cyanamide] was tested, and the “Days to 50% BB” value (Concord grape vines [1]; applied at 2% v/v to shoots) was 12 days, the “Days to 100% BB” value (Concord grape vines [1]; applied at 2% v/v to shoots) was 17 days and the “Shoot Weight” value (Concord grape vines [1]; applied at 2% v/v) was 27.4 g. For the same compound, the “effect on the number of days to 50% bud break (in words)” value (Concord grape vines [1]; rates of Table 1, hydrogen cyanamide 2% v/v) was “no effect”, the “Days to 50% BB” value (Concord grape vines [2]; applied at 2% v/v to shoots) was 18 days and the “Days to 100% BB” value (Concord grape vines [2]; applied at 2% v/v to shoots) was 16 days. For the same compound, the “Shoot Weight” value (Concord grape vines [2]; applied at 2% v/v) was 8.9 g, the “Shoot Growth (%) 1-5 cm” value (Thompson seedless grapes [4]; [11]) was 21.7% and the “Shoot Growth (%) 5-10 cm” value (Thompson seedless grapes [4]; [11]) was 16.1%. For the same compound, the “Shoot Growth (%) >10 cm” value (Thompson seedless grapes [4]; [11]) was 29.3 c %, the “Shoot Growth” value (Thompson seedless grapes [4]; [11]) was 67.2 and the “Bud Break % at 7 days” value (Thompson seedless grapes [4]; [12]) was 63.2 b %. For the same compound, the “Bud Break % at 21 days” value (Thompson seedless grapes [4]; [12]) was 81.3 bcd %.

For `CC1CC(C)(C)c2c(F)ccc(NC(=O)c3cn(C)nc3C(F)F)c21` (stereo not shown) [Inpyrfluxam, inpyrfluxam], the “shoot weight, more than control” value (Concord grape vines [1]; 486 ppm (Table 1)) was 44%, the “Days to 50% BB” value (Concord grape vines [1]; applied at 486 ppm to shoots) was 9 days and the “Days to 100% BB” value (Concord grape vines [1]; applied at 486 ppm to shoots) was 17 days. For the same compound, the “Shoot Weight” value (Concord grape vines [1]; applied at 486 ppm) was 47 g, the “time to 50% bud break” value (Concord grape vines [1]) was “about 25%” and the “time to 50% bud break” value (Concord grape vines [2]; 486 ppm) was “about 12%”. The “time to 100% bud break” value (Concord grape vines [2]; 486 ppm) was 19%, the “time to 100% bud break” value (Concord grape vines [2]; 972 ppm) was 38% and the “Days to 50% BB” value (Concord grape vines [2]; applied at 97.2 ppm to shoots) was 27 days. For the same compound, the “Days to 100% BB” value (Concord grape vines [2]; applied at 97.2 ppm to shoots) was 17 days, the “Shoot Weight” value (Concord grape vines [2]; applied at 97.2 ppm) was 9.1 g and the “Days to 50% BB” value (Concord grape vines [2]; applied at 194.4 ppm to shoots) was 29 days. For the same compound, the “Days to 100% BB” value (Concord grape vines [2]; applied at 194.4 ppm to shoots) was 28 days, the “Shoot Weight” value (Concord grape vines [2]; applied at 194.4 ppm) was 5.4 g and the “Days to 50% BB” value (Concord grape vines [2]; applied at 486 ppm to shoots) was 22 days. The “Days to 100% BB” value (Concord grape vines [2]; applied at 486 ppm to shoots) was 13 days, the “Shoot Weight” value (Concord grape vines [2]; applied at 486 ppm) was 7.6 g and the “Days to 50% BB” value (Concord grape vines [2]; applied at 972 ppm to shoots) was 27 days. For the same compound, the “Days to 100% BB” value (Concord grape vines [2]; applied at 972 ppm to shoots) was 10 days, the “Shoot Weight” value (Concord grape vines [2]; applied at 972 ppm) was 6.2 g and the “Bud Break % at 7 days” value (Thompson seedless grapes [3]; [13]) was 29.7 a %. For the same compound, the “Bud Break % at 21 days” value (Thompson seedless grapes [3]; [13]) was 100 f %, the “Bud Break % at 21 days” value (Thompson seedless grapes [3]; 486 ppm, applied 2 weeks before natural bud break, listed as inpyrfluxam) was “statistically significant increase over control” and the “Bud Break % at 7 days” value (Thompson seedless grapes [3]; [14]) was 36.8 a %. For the same compound, the “increase in shoot growth over Dormex” value (Thompson seedless grapes [4]; [15]) was 15%, the “increase in shoot growth over control” value (Thompson seedless grapes [4]; [15]) was 50% and the “increase in shoot growth over control” value (Thompson seedless grapes [4]; 486 ppm (Table 4), 4 weeks before natural bud break) was 27%. The “Shoot Growth (%) 1-5 cm” value (Thompson seedless grapes [4]; [16]) was 27.7%, the “Shoot Growth (%) 5-10 cm” value (Thompson seedless grapes [4]; [16]) was 21.1% and the “Shoot Growth (%) >10 cm” value (Thompson seedless grapes [4]; [16]) was 28.8 c %. For the same compound, the “Shoot Growth” value (Thompson seedless grapes [4]; [16]) was 77.6, the “Shoot Growth (%) 1-5 cm” value (Thompson seedless grapes [4]; [17]) was 25.9% and the “Shoot Growth (%) 5-10 cm” value (Thompson seedless grapes [4]; [17]) was 20.3%. For the same compound, the “Shoot Growth (%) >10 cm” value (Thompson seedless grapes [4]; [17]) was 19.7 b %, the “Shoot Growth” value (Thompson seedless grapes [4]; [17]) was 65.8 and the “Bud Break % at 21 days” value (Thompson seedless grapes [4]; [14]) was 90.3 def %. For the same compound, the “Bud Break % at 21 days” value (Thompson seedless grapes [4]; 486 ppm, applied 4 weeks before natural bud break, listed as inpyrfluxam) was “statistically significant increase over control”.

With `CON(C(=O)c1cn(C)nc1C(F)F)C(C)Cc1c(Cl)cc(Cl)cc1Cl` (stereo not shown) [Pydiflumetofen, pydiflumetofen] the “Days to 50% BB” value (Concord grape vines [1]; applied at 968 ppm to shoots) was 9 days, the “Days to 100% BB” value (Concord grape vines [1]; applied at 968 ppm to shoots) was 26 days and the “Shoot Weight” value (Concord grape vines [1]; applied at 968 ppm) was 24 g. For the same compound, the “time to 50% bud break” value (Concord grape vines [1]) was “about 25%”.
